target: T1, hROMK (hKir1.1) (Homo sapiens, UniProt P48048); assay: Thallium Flux Assay (ROMK channel functional thallium flux assay); type: cell-based; details: HEK293 cells stably expressing hROMK (hKir1.1); FluxOR thallium flux, FLIPR-Tetra, 30 min compound incubation; read-out: ROMK TI IC50
T1 construct: expressed in transfected cells
T1 sequence (P48048 1-391): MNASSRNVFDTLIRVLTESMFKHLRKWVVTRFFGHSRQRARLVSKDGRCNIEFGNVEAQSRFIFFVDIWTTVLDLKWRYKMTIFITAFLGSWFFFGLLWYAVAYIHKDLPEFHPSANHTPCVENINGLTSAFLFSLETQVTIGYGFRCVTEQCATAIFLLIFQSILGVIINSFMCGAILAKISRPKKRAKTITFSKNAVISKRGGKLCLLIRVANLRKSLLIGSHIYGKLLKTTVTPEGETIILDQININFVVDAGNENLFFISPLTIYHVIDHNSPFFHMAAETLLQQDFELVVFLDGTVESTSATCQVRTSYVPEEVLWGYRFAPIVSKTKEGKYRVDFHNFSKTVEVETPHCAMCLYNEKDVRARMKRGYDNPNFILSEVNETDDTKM
In short: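 HEK293 cells stably expressing hROMK (hKir1.1) loaded with FluxOR dye 90 min at ambient temperature, then compound 30 min before thallium/potassium stimulant (final 3 mM Tl/0.3 mM K). ROMK-sensitive flux defined by 3 μM standard inhibitor; data as % fluorescence change.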

Row | IC50 [µM] | SMILES
1 | 0.832 | Cc1c([C@@H](O)CN2CCC3(CC2)CCN(c2nc(CO)ns2)C3=O)ccc2c1COC2=O [Example 83, (R)-8-(2-hydroxy-2-(4-methyl-1-oxo-1,3-dihydroisobenzofuran-5-yl)ethyl)-2-(3-(hydroxymethyl)-1,2,4-thiadiazol-5-yl)-2,8-diazaspiro[4.5]decan-1-one]
2 | 0.0585 | CNc1nccc(N2CCC3(CCN(C[C@H](O)c4ccc5c(c4C)COC5=O)CC3)C2=O)n1 [Example 47, (R)-8-(2-hydroxy-2-(4-methyl-1-oxo-1,3-dihydroisobenzofuran-5-yl)ethyl)-2-(2-(methylamino)pyrimidin-4-yl)-2,8-diazaspiro[4.5]decan-1-one]
3 | 0.00845 | Cc1c([C@@H](O)CN2CCC3(CC2)CCN(c2ccc(Cl)nn2)CC3)ccc2c1COC2=O [Example 123, (R)-5-(2-(9-(6-chloropyridazin-3-yl)-3,9-diazaspiro[5.5]undecan-3-yl)-1-hydroxyethyl)-4-methylisobenzofuran-1(3H)-one]
4 | 0.042 | Cc1c([C@@H](O)[C@H](C)N2CCC3(CCN(c4ccc(=O)n(C)n4)C3=O)CC2)ccc2c1COC2=O [Example 107, 8-((1R,2S)-1-hydroxy-1-(4-methyl-1-oxo-1,3-dihydroisobenzofuran-5-yl)propan-2-yl)-2-(1-methyl-6-oxo-1,6-dihydropyridazin-3-yl)-2,8-diazaspiro[4.5]decan-1-one]
5 | 0.354 | CCc1nccc(N2CCC3(CCN(C[C@H](O)c4ccc5c(c4C)COC5=O)CC3)C2=O)n1 [Example 45, (R)-2-(2-ethylpyrimidin-4-yl)-8-(2-hydroxy-2-(4-methyl-1-oxo-1,3-dihydroisobenzofuran-5-yl)ethyl)-2,8-diazaspiro[4.5]decan-1-one]
6 | 0.149 | Cc1c([C@@H](O)CN2CCC3(CC2)CCN(c2ccns2)C3)ccc2c1COC2=O [Example 7, (R)-5-(1-hydroxy-2-(2-(isothiazol-5-yl)-2,8-diazaspiro[4.5]decan-8-yl)ethyl)-4-methylisobenzofuran-1(3H)-one]
7 | 0.284 | COc1ncc(N2CCC3(CCN(C[C@H](O)c4ccc5c(c4C)COC5=O)CC3)C2)cn1 [Example 15, (R)-5-(1-hydroxy-2-(2-(2-methoxypyrimidin-5-yl)-2,8-diazaspiro[4.5]decan-8-yl)ethyl)-4-methylisobenzofuran-1(3H)-one]
8 | 0.434 | Cc1c([C@@H](O)CN2CCC3(CC2)CCN(c2ccncn2)C3=O)ccc2c1COC2=O [Example 67, (R)-8-(2-hydroxy-2-(4-methyl-1-oxo-1,3-dihydroisobenzofuran-5-yl)ethyl)-2-(pyrimidin-4-yl)-2,8-diazaspiro[4.5]decan-1-one]
9 | 0.252 | Cc1c([C@H](O)CN2CCC3(CC2)CCN(c2ccc(=O)n(C)n2)C3=O)ccc2c1COC2=O (single isomer, unassigned) [Example 57]
10 | 0.242 | Cc1nc(-n2cnnn2)ccc1[C@@H](O)CN1CCC2(CC1)CCN(c1ncns1)C2=O [Example 99, (R)-8-(2-hydroxy-2-(2-methyl-6-(1H-tetrazol-1-yl)pyridin-3-yl)ethyl)-2-(1,2,4-thiadiazol-5-yl)-2,8-diazaspiro[4.5]decan-1-one]
11 | 0.036 | [2H]C([2H])(N1CCC2(CCN(c3ccc(=O)n(C)n3)C2=O)CC1)[C@]([2H])(O)c1ccc2c(c1C)COC2=O (single isomer, unassigned) [Example 58]
12 | 0.775 | Cc1c([C@@H](O)CN2CCC3(CC2)CC(=O)N(c2ccnc(Cl)n2)C3)ccc2c1COC2=O [Example 91, (R)-2-(2-chloropyrimidin-4-yl)-8-(2-hydroxy-2-(4-methyl-1-oxo-1,3-dihydroisobenzofuran-5-yl)ethyl)-2,8-diazaspiro[4.5]decan-3-one]
13 | 0.407 | COc1cc(N2CCOC3(CCN(C[C@H](O)c4ccc5c(c4C)COC5=O)CC3)C2=O)ccn1 [Example 23, (R)-9-(2-hydroxy-2-(4-methyl-1-oxo-1,3-dihydroisobenzofuran-5-yl)ethyl)-4-(2-methoxypyridin-4-yl)-1-oxa-4,9-diazaspiro[5.5]undecan-5-one]
14 | 0.747 | O[C@@H](CN1CCC2(CC1)CCN(c1cncc(Cl)n1)CC2)c1ccc(-n2cnnn2)nc1 [Example 134, (R)-1-(6-(1H-tetrazol-1-yl)pyridin-3-yl)-2-(9-(6-chloropyrazin-2-yl)-3,9-diazaspiro[5.5]undecan-3-yl)ethanol]
15 | 0.403 | Cc1c([C@@H](O)CN2CCC3(CC2)CCN(c2cc(F)ncn2)CC3)ccc2c1COC2=O [Example 117, (R)-5-(2-(9-(6-fluoropyrimidin-4-yl)-3,9-diazaspiro[5.5]undecan-3-yl)-1-hydroxyethyl)-4-methylisobenzofuran-1(3H)-one]
16 | 0.488 | Cc1c([C@@H](O)CN2CCC3(CC2)CN(c2ccc(=O)n(C)n2)C(=O)O3)ccc2c1COC2=O [Example 95, (R)-8-(2-hydroxy-2-(4-methyl-1-oxo-1,3-dihydroisobenzofuran-5-yl)ethyl)-3-(1-methyl-6-oxo-1,6-dihydropyridazin-3-yl)-1-oxa-3,8-diazaspiro[4.5]decan-2-one]
17 | 0.0228 | Cc1c([C@@H](O)CN2CCC3(CC2)CCN(c2cnc(Cl)cn2)CC3)ccc2c1COC2=O [Example 132, (R)-5-(2-(9-(5-chloropyrazin-2-yl)-3,9-diazaspiro[5.5]undecan-3-yl)-1-hydroxyethyl)-4-methylisobenzofuran-1(3H)-one]
18 | 0.35 | COc1cnc(N2CCC3(CCN(C[C@H](O)c4ccc5c(c4C)COC5=O)CC3)CC2)cn1 [Example 141, (R)-5-(1-hydroxy-2-(9-(5-methoxypyrazin-2-yl)-3,9-diazaspiro[5.5]undecan-3-yl)ethyl)-4-methylisobenzofuran-1(3H)-one]
19 | 0.769 | O=C1N(c2ccns2)CCC12CCN(C[C@H](O)c1ccc(-n3cnnn3)nc1)CC2 [Example 100, (R)-8-(2-(6-(1H-tetrazol-1-yl)pyridin-3-yl)-2-hydroxyethyl)-2-(isothiazol-5-yl)-2,8-diazaspiro[4.5]decan-1-one]
20 | 0.236 | Cc1c([C@@H](O)CN2CCC3(CC2)CCN(c2cnc(C(=O)O)cn2)CC3)ccc2c1COC2=O [Example 120, (R)-5-(9-(2-hydroxy-2-(4-methyl-1-oxo-1,3-dihydroisobenzofuran-5-yl)ethyl)-3,9-diazaspiro[5.5]undecan-3-yl)pyrazine-2-carboxylic acid]
21 | 0.251 | Cc1nsc(N2CCC3(CCN(C[C@H](O)c4ccc5c(c4C)COC5=O)CC3)C2)n1 [Example 1, 5-{(1R)-1-hydroxy-2-[2-(3-methyl-1,2,4-thiadiazol-5-yl)-2,8-diazaspiro[4.5]dec-8-yl]ethyl}-4-methyl-2-benzofuran-1(3H)-one]
22 | 0.505 | Cc1c([C@@H](O)CN2CCC3(CC2)CCN(c2cc(-c4ccccc4)no2)C3=O)ccc2c1COC2=O [Example 34, (R)-8-(2-hydroxy-2-(4-methyl-1-oxo-1,3-dihydroisobenzofuran-5-yl)ethyl)-2-(3-phenylisoxazol-5-yl)-2,8-diazaspiro[4.5]decan-1-one]
23 | 0.702 | Cn1nc(N2CCC3(CCN(C[C@@H](O)c4cccc(-n5cnnn5)c4)CC3)C2=O)ccc1=O [Example 96, (S)-8-(2-(3-(1H-tetrazol-1-yl)phenyl)-2-hydroxyethyl)-2-(1-methyl-6-oxo-1,6-dihydropyridazin-3-yl)-2,8-diazaspiro[4.5]decan-1-one]
24 | 0.193 | Cc1nccc(N2CCC3(CCN(C[C@H](O)c4ccc5c(c4C)COC5=O)CC3)C2=O)n1 [Example 41, (R)-8-(2-hydroxy-2-(4-methyl-1-oxo-1,3-dihydroisobenzofuran-5-yl)ethyl)-2-(2-methylpyrimidin-4-yl)-2,8-diazaspiro[4.5]decan-1-one]
25 | 0.376 | Cc1nc(-n2cnnn2)ccc1[C@@H](O)CN1CCC2(CC1)CN(c1ccc(=O)n(C)n1)CCO2 [Example 18, (R)-6-(9-(2-hydroxy-2-(2-methyl-6-(1H-tetrazol-1-yl)pyridin-3-yl)ethyl)-1-oxa-4,9-diazaspiro[5.5]undecan-4-yl)-2-methylpyridazin-3(2H)-one]
26 | 0.33 | Cc1c([C@@H](O)CN2CCC3(CC2)CCN(c2ncccn2)CC3)ccc2c1COC2=O [Example 136, (R)-5-(1-hydroxy-2-(9-(pyrimidin-2-yl)-3,9-diazaspiro[5.5]undecan-3-yl)ethyl)-4-methylisobenzofuran-1(3H)-one]
27 | 0.0683 | Cc1c([C@@H](O)CN2CCC3(CC2)CCN(c2cncc(N)n2)CC3)ccc2c1COC2=O [Example 129, (R)-5-(2-(9-(6-aminopyrazin-2-yl)-3,9-diazaspiro[5.5]undecan-3-yl)-1-hydroxyethyl)-4-methylisobenzofuran-1(3H)-one]
28 | 0.02 | Cc1c(C(O)C(C)N2CCC3(CCN(c4ccc(=O)n(C)n4)C3=O)CC2)ccc2c1COC2=O [Example 109, 8-41S,2S)-1-hydroxy-1-(4-methyl-1-oxo-1,3-dihydroisobenzofuran-5-yl)propan-2-yl)-2-(1-methyl-6-oxo-1,6-dihydropyridazin-3-yl)-2,8-diazaspiro[4.5]decan-1-one]
29 | 0.272 | Cc1c([C@@H](O)CN2CCC3(CC2)CCN(c2cn(C)c(=O)cn2)C3=O)ccc2c1COC2=O [Example 94, (R)-8-(2-hydroxy-2-(4-methyl-1-oxo-1,3-dihydroisobenzofuran-5-yl)ethyl)-2-(4-methyl-5-oxo-4,5-dihydropyrazin-2-yl)-2,8-diazaspiro[4.5]decan-1-one]

Reference: patent US20170275298A1, “INHIBITORS OF THE RENAL OUTER MEDULLARY POTASSIUM CHANNEL” (Merck Sharp & Dohme Corp., priority 2014, published 2017)
